The results in this text go back to article PMC5672842 (Chemical Science, 2017).

The target of test [1] is β-Glucosidase (P. chrysosp.) (Phanerodontia chrysosporium, UniProt O74203). The test is described as follows: 4-nitrophenyl β-D-glucopyranoside hydrolysis, absorbance […] nm. Particulars: pH 6.0, 37 °C, phosphate buffer, 10% DMSO. It counts as biochemical.
The target in test [2] is β-Glucosidase (A. oryzae). Described as above. The format is biochemical, Aspergillus oryzae. As to conditions: read-out: 19; pH 6.0, 37 °C, phosphate buffer, 10% DMSO.
Test [3] concerns the target T1, α-Glucosidase (A. niger) (Aspergillus niger, UniProt P56526).
T1 sequence (P56526 26-985): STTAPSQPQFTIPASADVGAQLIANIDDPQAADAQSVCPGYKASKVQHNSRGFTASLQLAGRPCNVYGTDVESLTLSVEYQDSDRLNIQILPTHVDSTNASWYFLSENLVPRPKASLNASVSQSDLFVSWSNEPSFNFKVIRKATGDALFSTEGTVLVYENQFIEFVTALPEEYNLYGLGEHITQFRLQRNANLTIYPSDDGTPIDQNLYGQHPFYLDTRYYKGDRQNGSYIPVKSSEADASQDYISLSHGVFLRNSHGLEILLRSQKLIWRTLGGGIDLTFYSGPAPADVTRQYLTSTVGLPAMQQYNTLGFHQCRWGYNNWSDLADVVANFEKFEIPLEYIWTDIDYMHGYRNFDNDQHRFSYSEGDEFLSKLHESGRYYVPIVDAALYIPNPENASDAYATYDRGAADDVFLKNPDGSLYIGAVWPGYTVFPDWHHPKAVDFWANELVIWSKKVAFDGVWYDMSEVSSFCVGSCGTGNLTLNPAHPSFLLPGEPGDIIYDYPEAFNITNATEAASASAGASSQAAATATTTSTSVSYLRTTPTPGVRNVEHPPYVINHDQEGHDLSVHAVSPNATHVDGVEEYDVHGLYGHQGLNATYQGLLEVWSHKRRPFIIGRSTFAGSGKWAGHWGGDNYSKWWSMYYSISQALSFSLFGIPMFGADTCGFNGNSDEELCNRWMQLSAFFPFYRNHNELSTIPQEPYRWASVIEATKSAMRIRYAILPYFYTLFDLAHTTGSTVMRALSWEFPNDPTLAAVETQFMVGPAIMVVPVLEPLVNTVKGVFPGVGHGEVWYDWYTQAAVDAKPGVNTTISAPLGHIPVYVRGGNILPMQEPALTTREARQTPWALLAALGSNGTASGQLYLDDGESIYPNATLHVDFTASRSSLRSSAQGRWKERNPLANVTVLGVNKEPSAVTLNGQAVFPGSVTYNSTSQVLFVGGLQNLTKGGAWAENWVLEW
The experiment in a line: 4-nitrophenyl α-D-glucopyranoside hydrolysis, absorbance […] nm. It counts as biochemical.

Test [4] addresses α-Glucosidase (B. stearoth.). The description is as above. It counts as biochemical, Geobacillus stearothermophilus. As to conditions: read-out: 6; pH 6.0, 37 °C, phosphate buffer, 10% DMSO; competitive.

Read-outs that look alike come from different tables or passages of the source.

Sequence of β-Glucosidase (P. chrysosp.) (O74203 22-823): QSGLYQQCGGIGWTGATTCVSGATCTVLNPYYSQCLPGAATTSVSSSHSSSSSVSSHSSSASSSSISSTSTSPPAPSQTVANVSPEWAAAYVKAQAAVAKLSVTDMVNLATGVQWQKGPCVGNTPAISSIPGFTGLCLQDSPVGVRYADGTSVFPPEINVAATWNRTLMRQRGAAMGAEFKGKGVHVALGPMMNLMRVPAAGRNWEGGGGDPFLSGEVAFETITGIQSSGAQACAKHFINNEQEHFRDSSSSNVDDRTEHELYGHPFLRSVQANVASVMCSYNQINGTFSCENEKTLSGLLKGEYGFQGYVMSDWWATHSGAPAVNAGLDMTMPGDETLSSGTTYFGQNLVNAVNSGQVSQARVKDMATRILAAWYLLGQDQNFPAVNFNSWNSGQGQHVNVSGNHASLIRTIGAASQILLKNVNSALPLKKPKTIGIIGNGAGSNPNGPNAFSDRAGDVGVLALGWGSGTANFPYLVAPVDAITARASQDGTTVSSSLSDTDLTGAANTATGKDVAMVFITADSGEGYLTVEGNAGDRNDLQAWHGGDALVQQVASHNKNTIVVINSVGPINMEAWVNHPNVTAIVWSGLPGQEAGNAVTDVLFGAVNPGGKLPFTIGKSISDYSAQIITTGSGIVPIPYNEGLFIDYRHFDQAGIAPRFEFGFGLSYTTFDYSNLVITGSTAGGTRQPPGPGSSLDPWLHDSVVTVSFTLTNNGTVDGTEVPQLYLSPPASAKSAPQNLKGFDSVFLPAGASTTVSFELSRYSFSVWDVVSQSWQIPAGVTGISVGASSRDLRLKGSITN

As for `OC[C@@H]1[C@@H](O)[C@H](O)[C@@H](O)CN1CCCc1c2ccccc2c(Cl)c2ccccc12` [compound 15, 1-(3-(10-Chloroanthracen-9-yl)propyl)-1-deoxynojirimycin], in test [1] (read-out: 15), the Ki came out at 0.0103 µM.

Regarding `O=C1[C@H](O)[C@@H](O)[C@H](O)[C@@H](CO)N1Cc1c2ccccc2c(Cl)c2ccccc12` [compound 19, N-(10-Chloro-9-anthracenemethyl)-D-glucono-δ-lactam], the Ki in test [1] (read-out: 19) worked out at 24.3 µM; in test [2], 169 µM; in test [3], 14.4 µM.

In the case of `OC[C@@H]1[C@@H](O)[C@H](O)[C@@H](O)CN1CCc1c2ccccc2c(Cl)c2ccccc12` [compound 12, 1-(2-(10-Chloroanthracen-9-yl)ethyl)-1-deoxynojirimycin], in test [1] (read-out: 12), the Ki amounted to 0.0062 µM.

Take `OC[C@@H]1[C@@H](O)[C@H](O)[C@@H](O)CN1Cc1c2ccccc2c(Cl)c2ccccc12` [compound 6, N-(10-Chloro-9-anthracenemethyl)-1-deoxynojirimycin]: the Ki is 93 µM in test [4]; 2.7 µM in test [1] (read-out: 6, competitive); 1.04 µM in test [3].
